Laboratory results from patent publication US20210269479A1, “USE OF CY[…] FOR TREATING CANCER” (Hepion Pharmaceuticals, Inc., priority 2020, published 2021).

Test system: human precision cut liver slices (PCLS)
Assay: RNA-Seq of PCLS, Stimulation Protocol (TGFb/PDGF + CRV vs TGFb/PDGF + Vehicle)
Type: cell-based
Experimental: PCLS were obtained from 5 human donors who underwent resection of liver cancer. Replicate slices were collected from healthy margins of the resections and cultured for 4 or 6 days depending on the experimental protocol. In the Nonstimulation Protocol slices were cultured for 6 days and treated for the entire period with DMSO vehicle or 5 μM CRV431. In the Stimulation Protocol slices were rested for 1 day and then administered the cytokines, TGFβ and PDGF-BB, for 3 days to stimulate inflammation and fibrosis. DMSO vehicle, CRV431 (1 and 5 μM), Alk5i (10 μM), obeticholic acid (5 μM), elafibranor (5 μM), resmetirom (5 μM), and Aramchol (5 μM) were administered individually as drug treatments in the Stimulation Protocol concurrent with TGFβ+PDGF-BB. Culture medium treatments were replaced daily.
(d) Gene expression by RNA-Seq. RNA sequencing of the complete transcriptome (30 million reads per sample) was conducted on vehicle and 5 μM CRV431 treatment groups from 3 donors both from the Nonstimulation and Stimulation Protocols. Data were analyzed by bioinformatics software programs to identify genes that were differentially expressed between vehicle and CRV431 treatments.
For the evaluation done for (d), 12 samples corresponding to 3 different donor slides which underwent 4 different treatments were studied. the comparisons carried out in this analysis are: (1) TGFb/PDGF+CRV vs TGFb/PDGF+Vehicle (V), and (2) Non-stimulated+CRV vs Non-stimulated+Vehicle.
Heatmaps were also generated to plot significant differently expressed genes for the comparison TGFb/PDGF+CRV and TGFb/PDGF+Vehicle (p-adjust<0.05, log fold change>0.5). The heatmap with the samples grouped by group is shown in FIG. 3A to observe the different expression pattern present within the group (blue=vehicle; red=CRV). The same significant genes were also plotted into another heatmap (FIG. 3B) but the samples are now plotted grouped by donor in order to observe the differences between donors (blue=vehicle; red=CRV).
Significant differently expressed genes that were identified in the comparison TGFb/PDGF+CRV and TGFb/PDGF+Vehicle ([…], log fold change>0.5) are shown in Table 2. The fold change is relative to the treatment (CRV).
As shown in the PCA analysis, there is a strong effect of the donor. Therefore, each donor was analyzed individually. Counts comparison was performed for TGFb/PDGF+[…] vs TGFb/PDGF+Vehicle by donor. […] Therefore the vehicle group had at least 300 copies less than CRV treatment. In other words, the treatment had at least 300 copies more than the Vehicle. After doing this selection individually for each donor, a venn diagram was plotted showing the overlapping between all three donors.
So, they had at least 300 copies less in the CRV treatment compared to the vehicle. After doing the selection individually for each donor, a venn diagram was plotted showing the overlapping between all three donors.

[1] = TGFb/PDGF + CRV vs TGFb/PDGF + Vehicle, 5 μM
[2] = presence of exogenous TGFβ+PDGF-BB, all donors

CC[C@@H]1NC(=O)[C@H]([C@H](O)[C@H](C)CCCCCCNC(C)=O)N(C)C(=O)[C@H](C(C)C)N(C)C(=O)[C@H](CC(C)C)N(C)C(=O)[C@H](CC(C)C)N(C)C(=O)[C@@H](C)NC(=O)[C@H](C)NC(=O)[C@H](CC(C)C)N(C)C(=O)[C@H](C(C)C)NC(=O)[C@H](CC(C)C)N(C)C(=O)[C@@H](C)N(C)C1=O [CRV431]
log2FoldChange, gene AC009053.1 [1]: 1.194 | log2FoldChange, gene AC134772.2 [1]: −4.561 | log2FoldChange, gene ADH1B [1]: 2.156 | log2FoldChange, gene ADH1C [1]: 1.869 | log2FoldChange, gene ADH4 [1]: 2.123 | log2FoldChange, gene ADH6 [1]: 1.903 | log2FoldChange, gene ADIRF [1]: 1.402 | log2FoldChange, gene APLNR [1]: 0.844 | log2FoldChange, gene ASPG [1]: 0.91 | log2FoldChange, gene ATP13A4 [1]: −3.082 | log2FoldChange, gene C7 [1]: 0.739 | log2FoldChange, gene CA11 [1]: −1.573 | log2FoldChange, gene CBFA2T2 [1]: 1.299 | log2FoldChange, gene CD93 [1]: −0.613 | log2FoldChange, gene CHST1 [1]: −1.087 | log2FoldChange, gene COL5A3 [1]: −0.842 | log2FoldChange, gene CXADR [1]: 1.61 | log2FoldChange, gene CYP4A11 [1]: 1.611 | log2FoldChange, gene CYP26A1 [1]: −1.283 | log2FoldChange, gene CYP26B1 [1]: −0.656 | log2FoldChange, gene DCHS1 [1]: −0.686 | log2FoldChange, gene DLL4 [1]: −0.69 | log2FoldChange, gene DUOX2 [1]: −2.182 | log2FoldChange, gene DVL1 [1]: 0.635 | log2FoldChange, gene ENSG00000283623 (symbol NA) [1]: −5.759 | log2FoldChange, gene ERVK13-1 [1]: −1.125 | log2FoldChange, gene ESAM [1]: −0.573 | log2FoldChange, gene ESM1 [1]: −1.401 | log2FoldChange, gene ESR1 [1]: 3.688 | log2FoldChange, gene F2RL3 [1]: −0.711 | log2FoldChange, gene GLYATL1 [1]: 1.438 | log2FoldChange, gene GPR4 [1]: −0.9 | log2FoldChange, gene GRAP [1]: −0.772 | log2FoldChange, gene HIST2H2AA4 [1]: −7.504 | log2FoldChange, gene IGHV4-61 [1]: 7.957 | log2FoldChange, gene IGLON5 [1]: −0.851 | log2FoldChange, gene ISLR2 [1]: −1.27 | log2FoldChange, gene KDM6A [1]: 0.785 | log2FoldChange, gene LAMA4 [1]: −0.939 | log2FoldChange, gene LIMS3 [1]: −1.705 | log2FoldChange, gene LOXL2 [1]: −0.948 | log2FoldChange, gene MCAM [1]: −0.841 | log2FoldChange, gene MEF2C [1]: −1.013 | log2FoldChange, gene MEG3 [1]: −0.853 | log2FoldChange, gene MRC2 [1]: −0.773 | log2FoldChange, gene MROH2A [1]: 3.641 | log2FoldChange, gene MT-CO1 [1]: −0.85 | log2FoldChange, gene NID2 [1]: −0.755 | log2FoldChange, gene NXPH4 [1]: −0.808 | log2FoldChange, gene PAN2 [1]: 1.019 | log2FoldChange, gene PANK3 [1]: 0.687 | log2FoldChange, gene PCDH12 [1]: −0.741 | log2FoldChange, gene PHF8 [1]: 0.709 | log2FoldChange, gene PKLR [1]: 2.127 | log2FoldChange, gene PLXNA2 [1]: 1.326 | log2FoldChange, gene POU6F1 [1]: −1.716 | log2FoldChange, gene PPP1R16B [1]: −1.016 | log2FoldChange, gene RALGPS2 [1]: 0.836 | log2FoldChange, gene RBMXL1 [1]: −8.265 | log2FoldChange, gene RCCD1 [1]: −1.838 | log2FoldChange, gene RHCG [1]: −0.927 | log2FoldChange, gene RPS7P1 [1]: 2.668 | log2FoldChange, gene SLC4A8 [1]: −2.641 | log2FoldChange, gene SLC26A6 [1]: −0.692 | log2FoldChange, gene SLC39A5 [1]: 1.92 | log2FoldChange, gene SMC5 [1]: 0.799 | log2FoldChange, gene STRA6 [1]: −1.639 | log2FoldChange, gene STX16 [1]: 1.025 | log2FoldChange, gene TDO2 [1]: 0.916 | log2FoldChange, gene TMEM70 [1]: 1.062 | log2FoldChange, gene TTYH2 [1]: −1.114 | log2FoldChange, gene UBD [1]: −1.035 | log2FoldChange, gene VWA8 [1]: 1.514 | log2FoldChange, gene ZC3H10 [1]: 1.022 | log2FoldChange, gene ZDHHC20 [1]: 1.207 | log2FoldChange, gene ZNF461 [1]: 1.391 | expression of fibrosis-related genes by RNA-Seq (collagen genes, collagen hydroxylases and oxidases, ACTA2, VEGF, TIMPs): decreased expression of many fibrosis-related genes | fold change in RNA, DUOX2 [2]: −4.5 fold | fold change in RNA, ESM1 [2]: −2.6 fold | fold change in RNA, LOXL2 [2]: −1.9 fold | fold change in RNA, RCCD1 [2]: −3.6 fold | fold change in RNA, STRA6 [2]: −3.1 fold | fold change in RNA, UBD/FAT10 [2]: −2.0 fold
